PMC5681660, “Reduced hepatitis B and D viral entry using clinically applied drugs as novel inhibitors of the bile acid transporter NTCP” (Scientific Reports, 2017)
Like-named read-outs stand apart in the source and are kept apart here.

Columns and labels:
human NTCP [1] = biological target: T1, human NTCP (Homo sapiens, UniProt Q14973); test: Screening taurocholate uptake assay (96-well, [14C]taurocholate, 10 µM drug); details: for position among the hits of the screen (combined ranking of both screening assays): 1280 drugs at 10 µM, TC uptake and Myrcludex B binding screens combined
T1 sequence (Q14973 1-349): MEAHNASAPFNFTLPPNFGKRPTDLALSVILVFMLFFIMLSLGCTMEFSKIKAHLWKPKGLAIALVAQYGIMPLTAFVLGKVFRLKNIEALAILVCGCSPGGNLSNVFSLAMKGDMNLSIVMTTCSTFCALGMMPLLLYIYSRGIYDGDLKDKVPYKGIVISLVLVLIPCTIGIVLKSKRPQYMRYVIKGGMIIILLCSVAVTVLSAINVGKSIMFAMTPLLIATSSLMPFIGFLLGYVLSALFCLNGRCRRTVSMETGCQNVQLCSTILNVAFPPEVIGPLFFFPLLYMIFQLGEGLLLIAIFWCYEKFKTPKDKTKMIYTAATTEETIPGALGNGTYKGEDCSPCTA

human NTCP [2] = biological target: T1, human NTCP; test: Screening fluorescent competitive Myrcludex B-FITC binding assay (96-well, 10 µM drug)
[3] = Prestwick library screen, 10 µM drug, B-score of taurocholate uptake
[4] = combined ranking from functional and binding assay B-scores
[5] = Prestwick library screen, 10 µM drug, B-score of Myrcludex B-FITC binding
[6] = combined ranking from functional and binding screening assays
[7] = screen, 10 µM drug, taurocholate uptake
[8] = screen, 10 µM drug, Myrcludex B-FITC binding
[9] = Prestwick library screen, taurocholate uptake, 10 µM drug
[10] = ranking score beside the functional and binding assay B-scores of the screen
[11] = Prestwick library screen, Myrcludex B-FITC binding, 10 µM drug
[12] = ranking over the functional and the binding screening assay
[13] = screening taurocholate uptake, 10 µM drug

Br.COc1ccc2c(c1)[C@]13CCCC[C@@H]1[C@H](C2)N(C)CC3.O
B-score functional assay (human NTCP [1]; [3]): 0.044 | Ranking score (human NTCP [1]; [4]): 928.917 | B-score binding assay (human NTCP [2]; [5]): 2.674

COc1cc2c(cc1OC)C(C)NCC2.Cl (stereo not drawn)
B-score functional assay (human NTCP [1]; [3]): 2.498 | Ranking score (human NTCP [1]; [4]): 1023.83 | B-score binding assay (human NTCP [2]; [5]): 0.343

Cc1ccc(Cl)c(Nc2ccccc2C(=O)[O-])c1Cl.O.[Na+]
Ranking score (human NTCP [1]; [6]): 386.518 | B-score functional assay (human NTCP [1]; [7]): -1.621 | B-score binding assay (human NTCP [2]; [8]): 0.415

Cl.Cl.Cl.Cl.Cl.NCCNCCNCCNCCN
B-score functional assay (human NTCP [1]; [9]): -0.035 | Ranking score (human NTCP [1]; [10]): 758.136 | B-score binding assay (human NTCP [2]; [11]): 0.678

CCCCC(C)(O)C/C=C/[C@H]1[C@H](O)CC(=O)[C@@H]1CCCCCCC(=O)OC (mixture of isomers) [Misoprostol]
B-score functional assay (human NTCP [1]; [9]): -0.231 | Ranking score (human NTCP [1]; [10]): 671.728 | B-score binding assay (human NTCP [2]; [11]): 0.662

CN(N=O)C(=O)N[C@H]1C(O)O[C@H](CO)[C@@H](O)[C@@H]1O (mixture of isomers) [Streptozotocin]
Ranking score (human NTCP [1]; [6]): 307.444 | B-score functional assay (human NTCP [1]; [7]): -0.84 | B-score binding assay (human NTCP [2]; [8]): -0.654

Cl.NCC(O)c1ccc(O)cc1 (racemic) [(+,-)-Octopamine hydrochloride]
B-score functional assay (human NTCP [1]; [3]): 2.044 | Ranking score (human NTCP [1]; [4]): 930.549 | B-score binding assay (human NTCP [2]; [5]): 0.069

NCC(CC(=O)O)c1ccc(Cl)cc1 (racemic) [Baclofen (R,S)]
B-score functional assay (human NTCP [1]; [3]): 2.955 | Ranking score (human NTCP [1]; [4]): 1069.07 | B-score binding assay (human NTCP [2]; [5]): 0.531

COC(=O)C1=C(C)NC(C)=C(C(=O)O[C@@H]2CCCN(Cc3ccccc3)C2)[C@@H]1c1cccc([N+](=O)[O-])c1.Cl (racemic) [Benidipine hydrochloride]
Ranking score (human NTCP [1]; [6]): 426.727 | B-score functional assay (human NTCP [1]; [7]): -0.759 | B-score binding assay (human NTCP [2]; [8]): -0.032

CC(C)(S)C(N)C(=O)O (racemic) [D,L-Penicillamine]
B-score functional assay (human NTCP [1]; [3]): 0.176 | Ranking score (human NTCP [1]; [4]): 845.872 | B-score binding assay (human NTCP [2]; [5]): 0.477

OCC(O)CN1CCN(c2ccccc2)CC1 (racemic) [Dropropizine (R,S)]
B-score functional assay (human NTCP [1]; [9]): 0.232 | Ranking score (human NTCP [1]; [10]): 761.407 | B-score binding assay (human NTCP [2]; [11]): 0.054

COCCc1ccc(OCC(O)CNC(C)C)cc1.COCCc1ccc(OCC(O)CNC(C)C)cc1.O=C(O)C(O)C(O)C(=O)O (racemic) [Metoprolol-(+,-) (+)-tartrate salt]
Ranking score (human NTCP [1]; [6]): 295.567 | B-score functional assay (human NTCP [1]; [7]): -0.726 | B-score binding assay (human NTCP [2]; [8]): -0.835

CN1CCC2(C)c3cc(O)ccc3N(C)C12.O=C(O)/C=C/C(=O)O (single isomer, unassigned; (-)) [(-)-Eseroline fumarate salt]
B-score functional assay (human NTCP [1]; [9]): 0.19 | Ranking score (human NTCP [1]; [10]): 803.481 | B-score binding assay (human NTCP [2]; [11]): 0.233

CC(C)NCC(O)c1ccc(O)c(O)c1.Cl (single isomer, unassigned; (-)) [(-)-Isoproterenol hydrochloride]
B-score functional assay (human NTCP [1]; [3]): 0.061 | Ranking score (human NTCP [1]; [4]): 845.999 | B-score binding assay (human NTCP [2]; [5]): 0.852

Clc1cnccn1 [2-Chloropyrazine]
B-score functional assay (human NTCP [1]; [9]): 1.648 | Ranking score (human NTCP [1]; [10]): 812.047 | B-score binding assay (human NTCP [2]; [11]): -0.068

C[C@]12CC[C@@H](O)C[C@H]1CC[C@@H]1[C@@H]2CC[C@]2(C)C(=O)CC[C@@H]12 [3-alpha-Hydroxy-5-beta-androstan-17-one]
B-score functional assay (human NTCP [1]): -2.764 | Ranking score (human NTCP [1]): 235.83 | B-score binding assay (human NTCP [2]): 0.051

C[C@H](CCC(=O)O)[C@H]1CC[C@H]2[C@@H]3[C@@H](O)C[C@@H]4C[C@H](O)CC[C@]4(C)[C@H]3CC[C@]12C [ursodeoxycholic acid, reference compound]
position among the hits of the screen (combined ranking of both screening assays) (human NTCP [1]): ≤ 150 | position among the hits of the screen (combined ranking of both screening assays) (human NTCP [1]; listed as Ursodeoxycholic acid): ≤ 100

(S)-(-)-Cycloserine
Ranking score (human NTCP [1]; [12]): 89.398 | B-score functional assay (human NTCP [1]; [13]): -1.227

Colistin sulfate
B-score functional assay (human NTCP [1]; [13]): -0.917

R(-) Apomorphine hydrochloride hemihydrate
Ranking score (human NTCP [1]; combined ranking of functional and binding screening assays): 1173.62 | B-score functional assay (human NTCP [1]; screening taurocholate uptake, 10 µM drug, B-score): 2.876

Verteporfin
Ranking score (human NTCP [1]; [12]): 33.9116 | B-score functional assay (human NTCP [1]; [13]): -2.252
